Results reported in publication PMC7101335, “Aryl-alkyl-lysines: Novel agents for treatment of C. difficile infection” (Scientific Reports, 2020).
≈ marks a conversion by molar mass, not a printed value. Where two headings read alike, the source gives them in different places.

Legend:
E. faecium = test: Broth microdilution MIC against E. faecium strains; type: cell-based; conditions: Enterococcus faecium, read-out: Minimum inhibitory concentration
E. faecalis = test: Broth microdilution MIC against E. faecalis strains; type: cell-based; conditions: Enterococcus faecalis, read-out: Minimum inhibitory concentration
[1] = test system: human ileocecal colorectal adenocarcinoma cell line (HRT-18); test: Cytotoxicity, MTS assay, HRT-18 cells; type: cell-based; conditions: 32 µg mL^−1, 2 hours
Description: Briefly, ~2 × 10^4 cells suspended in 100 µL of RPMI-1640 supplemented with 10% horse serum were seeded in a 96-well plate and incubated at 37 °C with 5% CO2. The cells were cultured for 24 hours until reaching ~90% confluency. The cells were further incubated with the aforementioned concentrations of the compounds for 2 hours. Afterwards, culture media were discarded and the cells in each well were washed with PBS and 100 µL of cell culture media were added prior to addition of the assay reagent MTS 3-(4,5-dimethylthiazol-2-yl)-5-(3-carboxymethoxyphenyl)-2-(4-sulfophenyl)-2H-tetrazolium) (Promega). The plates were incubated for 4 hours at 37 °C in a humidified 5% CO2 atmosphere. The absorbance was recorded at 490 nm and the corrected absorbance readings (actual absorbance readings for each treatment subtracted from background absorbance) were taken using a kinetic ELISA microplate reader (SpectraMax i3x, Molecular Devices, Sunnyvale, CA, USA). The quantity of viable cells after treatment with each compound was expressed as a percentage of the control, DMSO. Asterisk (*) denotes a significant difference from the DMSO-treated cells using 2-way analysis of variance (ANOVA) followed by Dunnett’s pairwise comparison.

[2] = test system: vancomycin-resistant and vancomycin-susceptible strains of Enterococcus; test: Broth microdilution MIC against Enterococcus strains (E. faecalis and E. faecium, summary in text); type: cell-based; conditions: all E. faecalis and E. faecium strains tested, vancomycin-resistant and -sensitive
Clostridium difficile = test: Broth microdilution MIC against Clostridium difficile strains; type: cell-based; conditions: Clostridioides difficile
Description: The broth microdilution assay was utilized following the Clinical and Laboratory Standards Institute (CLSI) guidelines with slight modifications. Briefly, C. difficile strains were grown on anaerobic blood agar plates (Becton Dickinson, BD) and suspended in brain heart infusion supplemented broth (Brain heart infusion medium, BD, supplemented with yeast extract, L-cysteine, Vitamin K1 and Hemin, Sigma) to achieve a bacterial concentration of ~10^5 CFU/ml. The bacterial suspension was seeded in 96-well plates containing drugs/compounds, in duplicate, at the required concentration. Plates were then incubated at 37 °C anaerobically for 48 hours. MICs reported are the lowest concentration of each agent that inhibited the visual growth of bacteria.

[3] = Caco-2 bidirectional permeability assay; type: in vitro ADME, human; conditions: human, Caco-2, two hours
Description: (§1) The Caco-2 bidirectional permeability assay was conducted as described in previous reports[29],[30],[41],[42]. The Caco-2 cell line is similar to human enterocytes and expresses P-glycoprotein and other relevant metabolic enzymes that affect absorption of orally-administered xenobiotics across the intestinal mucosa[34],[43],[44]. Caco-2 cells were grown in tissue culture flasks, trypsinized (by rinsing cells with phosphate-buffered saline and then treating with trypsin-EDTA for 5–10 minutes at 37 °C with 5% CO2 until cells detached), suspended in Dulbecco’s Modified Eagle Medium with 10% fetal bovine serum, 1% nonessential amino acids and penicillin-streptomycin, and then seeded onto wells of a Millipore 96-well Caco-2 plate. Cells were cultured at 37 °C with 5% CO2 until confluent (approximately three weeks) and media was changed at relevant time points. For Apical to Basolateral (A → B) permeability, the test article was added to the apical (A) compartment and the amount of permeation (Papp, as calculated below) to the basolateral (B) compartment was determined; for Basolateral to Apical (B → A) permeability, the test article was added to the B compartment and the amount of permeation to the A compartment was determined. […] Caco-2 cells were incubated with these buffers for two hours, and the receiver side buffer was removed for analysis by LC/MS/MS. To verify the tight junctions and integrity of Caco-2 cell monolayers, aliquots of the cell buffers were analyzed by fluorescence (Lucifer yellow transport ≤ 2%). Any deviations from control values are reported. Data are expressed as permeability (Papp) = (dQ/dt)/(C0A) where dQ/dt is the rate of permeation, C0 is the initial concentration of test agent, and A is the area of the monolayer.

Caco-2 monolayer = test: Caco-2 bidirectional permeability assay; type: in vitro ADME, human; conditions: Caco-2 bidirectional
Description: as §1

human erythrocytes = test system: human erythrocytes; parameters: method as in PMID 24479371; conditions: concentration at which 50% of human erythrocytes are lysed; cited from earlier work
[4] = E. faecium E417 (vancomycin-resistant)
[5] = E. faecalis SF28073 (vancomycin-resistant)
[6] = C. difficile Isolate 1 (NR-13427), read-out: Minimum inhibitory concentration
[7] = C. difficile Isolate 2 (NR-13428), read-out: Minimum inhibitory concentration
[8] = C. difficile Isolate 4 (NR-13430), read-out: Minimum inhibitory concentration
[9] = C. difficile Isolate 6 (NR-13432), read-out: Minimum inhibitory concentration
[10] = C. difficile Isolate 9 (NR-13435), read-out: Minimum inhibitory concentration
[11] = C. difficile Isolate 10 (NR-13436), read-out: Minimum inhibitory concentration
[12] = C. difficile P2 (NR-32883), read-out: Minimum inhibitory concentration
[13] = C. difficile P4 (NR-32889), read-out: Minimum inhibitory concentration
[14] = C. difficile P8 (NR-32888), read-out: Minimum inhibitory concentration
[15] = C. difficile P13 (NR-32891), read-out: Minimum inhibitory concentration
[16] = C. difficile P20 (NR-32896), read-out: Minimum inhibitory concentration
[17] = C. difficile P21 (NR-32897), read-out: Minimum inhibitory concentration
[18] = C. difficile P29 (NR-32903), read-out: Minimum inhibitory concentration
[19] = across all tested strains of C. difficile

Structure (SMILES) | MIC (E. faecium; [4]) | MIC (E. faecium; E. faecium E1071) | MIC (E. faecium; E. faecium UAA714) | MIC (E. faecalis; E. faecalis B3196) | MIC (E. faecalis; E. faecalis B3286) | MIC (E. faecalis; E. faecalis B3336) | MIC (E. faecalis; E. faecalis SF24397) | MIC (E. faecalis; [5]) | MIC [2] | MIC (Clostridium difficile; [6]) | MIC (Clostridium difficile; [7]) | MIC (Clostridium difficile; [8]) | MIC (Clostridium difficile; [9]) | MIC (Clostridium difficile; [10]) | MIC (Clostridium difficile; [11]) | MIC (Clostridium difficile; [12]) | MIC (Clostridium difficile; [13]) | MIC (Clostridium difficile; [14]) | MIC (Clostridium difficile; [15]) | MIC (Clostridium difficile; [16]) | other results
CCCCCCCCN(Cc1cccc2ccccc12)C(=O)[C@@H](N)CCCCN [NCK-8] | 8 µg/mL (≈ 20.1 µM) | 16 µg/mL (≈ 40.2 µM) | 16 µg/mL (≈ 40.2 µM) | 16 µg/mL (≈ 40.2 µM) | 32 µg/mL (≈ 80.5 µM) | 16 µg/mL (≈ 40.2 µM) | 16 µg/mL (≈ 40.2 µM) | 16 µg/mL (≈ 40.2 µM) | 8 to 32 µg/mL (≈ 20.1 to 80.5 µM) | 8 µg/mL (≈ 20.1 µM) | 8 µg/mL (≈ 20.1 µM) | 8 µg/mL (≈ 20.1 µM) | 8 µg/mL (≈ 20.1 µM) | 4 µg/mL (≈ 10.1 µM) | 8 µg/mL (≈ 20.1 µM) | 4 µg/mL (≈ 10.1 µM) | 8 µg/mL (≈ 20.1 µM) | 8 µg/mL (≈ 20.1 µM) | 8 µg/mL (≈ 20.1 µM) | 8 µg/mL (≈ 20.1 µM) | toxicity to HRT-18 cells [1]: survived; MIC (Clostridium difficile; C. difficile Isolate 5 (NR-13431), read-out: Minimum inhibitory concentration): 2 µg/mL (≈ 5.03 µM); MIC (Clostridium difficile; C. difficile P15 (NR-32892), read-out: Minimum inhibitory concentration): 8 µg/mL (≈ 20.1 µM); MIC (Clostridium difficile; [17]): 4 µg/mL (≈ 10.1 µM); MIC (Clostridium difficile; [18]): 8 µg/mL (≈ 20.1 µM); MIC (Clostridium difficile; [19]): 2 to 8 µg/mL (≈ 5.03 to 20.1 µM)
CCCCCCCCCCN(Cc1cccc2ccccc12)C(=O)[C@@H](N)CCCCN [NCK-10] | < 1 µg/mL | 2 µg/mL (≈ 4.7 µM) | 2 µg/mL (≈ 4.7 µM) | 2 µg/mL (≈ 4.7 µM) | 2 µg/mL (≈ 4.7 µM) | 2 µg/mL (≈ 4.7 µM) | 2 µg/mL (≈ 4.7 µM) | 2 µg/mL (≈ 4.7 µM) | ≤ 2 µg/mL | 2 µg/mL (≈ 4.7 µM) | 1 µg/mL (≈ 2.35 µM) | 2 µg/mL (≈ 4.7 µM) | 1 µg/mL (≈ 2.35 µM) | 1 µg/mL (≈ 2.35 µM) | 1 µg/mL (≈ 2.35 µM) | 1 µg/mL (≈ 2.35 µM) | 2 µg/mL (≈ 4.7 µM) | 1 µg/mL (≈ 2.35 µM) | 2 µg/mL (≈ 4.7 µM) | 1 µg/mL (≈ 2.35 µM) | cells survived ([1]; HRT-18 cells, relative to DMSO): 60%; Papp A→B at 2 h ([3]; apical (pH 6.5) to basolateral (pH 7.4)): < 0.01 ×10⁻⁶ cm/s; Papp B→A at 2 h ([3]; basolateral to apical): 3.26 ×10⁻⁶ cm/s; Notes (permeability class) (Caco-2 monolayer): Limited permeability; hemolytic concentration 50 (HC50) (human erythrocytes): 95 µg/mL; MIC (Clostridium difficile; [17]): 1 µg/mL (≈ 2.35 µM); MIC (Clostridium difficile; [18]): 1 µg/mL (≈ 2.35 µM); MIC (Clostridium difficile; C. difficile strains P8, P13 and Isolate 10): 1 to 2 µg/mL (≈ 2.35 to 4.7 µM); MIC (Clostridium difficile; [19]): 0.5 to 2 µg/mL (≈ 1.17 to 4.7 µM); MIC (Clostridium difficile; most strains of C. difficile tested, read-out: MIC): ≤ 1 µg/mL; MIC (Clostridium difficile; read-out: Minimum inhibitory concentration, C. difficile Isolate 5 (NR-13431)): ≤ 0.5 µg/mL; MIC (Clostridium difficile; read-out: Minimum inhibitory concentration, C. difficile P15 (NR-32892)): ≤ 0.5 µg/mL; MIC (Clostridium difficile; the rest of the C. difficile strains): 1 µg/mL (≈ 2.35 µM)
